# Literature values, collected in US20070020218A1, “Composition and method for the treatment of psoriasis” (priority 2005, published 2007).
# Columns and labels:
# knee osteoarthritis = conditions: for persistence of benefits after treatment was stopped: followed for an additional 60 days after the 90 days of treatment; for reduction of symptoms: over 90 days of treatment
# [1] = test system: osteoarthritis of the knee; conditions: after 4 weeks, 252 people
# arthritis of the knee = conditions: 12 months, 104 individuals
# [2] = oral
# [3] = test system: osteoarthritis of the knee; conditions: 85 people with osteoarthritis of the knee
# degenerative arthritis = conditions: 2,250 mg daily for six weeks
molecule,measurement,setting,value
N[C@H]1C(O)O[C@H](CO)[C@@H](O)[C@@H]1O.O=S(=O)(O)O (stereo partly drawn) [glucosamine sulfate],persistence of benefits after treatment was stopped,knee osteoarthritis,lasted for the full 60 days
same,reduction of symptoms,knee osteoarthritis,equally effective
same,pain and movement against placebo,[1],significantly reduced pain and improved movement
chondroitin sulfate,trial outcome against placebo,arthritis of the knee,Good results
same,chondroitin absorbed intact,[2],up to 15%
same,participants with improved results,[3],69%
"CS(C)(=O)=O [MSM, Methylsulfonyl methane]",reduction in pain on average,degenerative arthritis,82%
"CN1C(C(=O)Nc2ccccn2)=C(O)c2ccccc2S1(=O)=O [piroxicam, reference compound]",persistence of benefits after treatment was stopped,knee osteoarthritis,rapidly disappeared
same,reduction of symptoms,knee osteoarthritis,equally effective
